This assay relates to Group A Streptococcus UMAA2166 viability, BacTiterGlo luminescence, 6 h. As to the kind of experiment: GAS UMAA2166 growth inhibition – luminescence, BacTiterGlo, counter-screen for streptokinase expression inhibitor project, dose response (AID 1915).

Molecules are shown by their SMILES. Results filed as inconclusive are left out.

Turning to `CNC(CC(C)C)C(=O)NC1C(=O)NC(CC(N)=O)C(=O)NC2C(=O)NC3C(=O)NC(C(=O)NC(C(=O)O)c4cc(O)cc(O)c4-c4cc3ccc4O)C(O)c3ccc(c(Cl)c3)Oc3cc2cc(c3OC2OC(CO)C(O)C(O)C2OC2CC(C)(N)C(O)C(C)O2)Oc2ccc(cc2Cl)C1O` (configuration not stated), the IC50 is 0.341 µM.

As for `CN(C)c1ccnc2c[cH-]cc12.[Fe].c1ccc(-[c-]2[c-](-c3ccccc3)[c-](-c3ccccc3)[c-](-c3ccccc3)[c-]2-c2ccccc2)cc1` (configuration not stated), the IC50 is 8.69 µM.
